From PMC11911254 (Pharmacological Reports, 2025)
“And” between values parts separate entries of the source, which are not always exact repeats. Equal entries are not always repeated. One block for each compound: values may come before it.

Test: Concentration of paracetamol and its metabolites in plasma, CSF and brain cortex by LC-MS/MS
Experimental: Drug injection protocol is illustrated in Fig. 1.
Male and female postnatal P4 pups and 7–8 week-old non-pregnant females were used. […] In combination therapy experiments, this dose was accompanied by one of the 7 other drugs (Table 1). For all experiments, animals were terminally anesthetized 30 min after the drug injection using inhaled isoflurane (IsoFlo 100% w/w, Abbott Laboratories), and blood, CSF, and brain samples were collected. Blood was collected directly from the right cardiac ventricle, CSF from the cisterna magna, and cortical brain samples from the frontal/parietal lobes dorsal to the lateral ventricles as described previously.
Pregnant E19 dams were anesthetized with ip urethane injection (25% w/v urethane, Sigma, 1 ml/100 g body weight) and placed on a 39 °C heating pad in the supine position. An endotracheal catheter was inserted to maintain a clear airway. Catheters were inserted into the femoral vein and artery for iv drug administration and arterial blood sampling respectively. The cannula was flushed with 0.5 ml of heparinized saline (Hospira Inc, 5,000 units/ml) after drug administration and following each arterial blood sample. Following drug administration to the dams, fetuses were exteriorized and serially collected starting at 30 min post-maternal injection. […] At collection, the viability of each fetus was assessed (presence of a heartbeat, the colour of the umbilical vessels) and blood, CSF, and brain samples were taken along with a time-matched maternal blood sample from the femoral artery. At the end of the experiment, a final maternal blood sample was taken directly from the left cardiac ventricle, and CSF and brain samples were collected.
This method has been described previously for valproate, lamotrigine, and olanzapine and was applied in the present study. Simultaneous quantification was performed for all compounds in plasma, brain, and CSF samples following the addition of respective stable isotope-labeled internal standards.
Linear response range was determined in untreated control rat plasma for each compound at 0.1, 1, 10, 50, 100, 200, 400, and 800 µg/ml.

[1] = E19 rats, maternal iv paracetamol 15 mg/kg + cimetidine 11 mg/kg (PARA+CIM, n=10), median (IQR)
[2] = E19 rats, maternal iv paracetamol 15 mg/kg + digoxin 0.03 mg/kg (PARA+DIG, n=9), median (IQR)
[3] = E19 rats, maternal iv paracetamol 15 mg/kg + lamotrigine 6 mg/kg (PARA+LTG, n=10), median (IQR)
[4] = E19 rats, maternal iv paracetamol 15 mg/kg + olanzapine 0.15 mg/kg (PARA+OLZ, n=10), median (IQR), all values if <3 detected
[5] = E19 rats, maternal iv paracetamol 15 mg/kg + valproate 30 mg/kg (PARA+VPA, n=10), median (IQR)
[6] = E19 rats, maternal iv paracetamol 15 mg/kg + valproate 30 mg/kg (PARA+VPA, n=10), median (IQR), all values if <3 detected
[7] = E19 rats, maternal iv paracetamol 15 mg/kg monotherapy (PARA, n=10), median (IQR)
[8] = P4 rats, 30 min after ip paracetamol 15 mg/kg + cimetidine 11 mg/kg (PARA+CIM, n=4), median (IQR)
[9] = P4 rats, 30 min after ip paracetamol 15 mg/kg + digoxin 0.03 mg/kg (PARA+DIG, n=4), median (IQR)
[10] = P4 rats, 30 min after ip paracetamol 15 mg/kg + fluvoxamine 1.5 mg/kg (PARA+FLX, n=4), median (IQR)
[11] = P4 rats, 30 min after ip paracetamol 15 mg/kg + fluvoxamine 1.5 mg/kg (PARA+FLX, n=4), median (IQR) or individual values
[12] = P4 rats, 30 min after ip paracetamol 15 mg/kg + lithium 3.2 mg/kg (PARA+Li, n=4), median (IQR)
[13] = P4 rats, 30 min after ip paracetamol 15 mg/kg + olanzapine 0.15 mg/kg (PARA+OLZ, n=4), median (IQR)
[14] = P4 rats, 30 min after ip paracetamol 15 mg/kg monotherapy (PARA, n=4), median (IQR)
[15] = non-pregnant adult rats, 30 min after ip paracetamol 15 mg/kg + fluvoxamine 1.5 mg/kg (PARA+FLX, n=4), median (IQR)
[16] = non-pregnant adult rats, 30 min after ip paracetamol 15 mg/kg + fluvoxamine 1.5 mg/kg (PARA+FLX, n=4), median (IQR), individual values if <3 samples
[17] = non-pregnant adult rats, 30 min after ip paracetamol 15 mg/kg + olanzapine 0.15 mg/kg (PARA+OLZ, n=4), median (IQR)
[18] = non-pregnant adult rats, 30 min after ip paracetamol 15 mg/kg monotherapy (PARA, n=6), median (IQR)
[19] = P4 rats, 30 min after ip paracetamol 15 mg/kg + lamotrigine 6 mg/kg (PARA+LTG, n=5), median (IQR)
[20] = P4 rats, 30 min after ip paracetamol 15 mg/kg + valproate 30 mg/kg (PARA+VPA, n=4), median (IQR) or individual values
[21] = non-pregnant adult rats, 30 min after ip paracetamol 15 mg/kg + digoxin 0.03 mg/kg (PARA+DIG, n=3), median (IQR)
[22] = non-pregnant adult rats, 30 min after ip paracetamol 15 mg/kg + lamotrigine 6 mg/kg (PARA+LTG, n=3), median (IQR), individual values if <3 samples

Concentration in CSF [2]: 0.2 µg/mL
Concentration in brain [2]: 0.5 µg/mL
Concentration in brain [4]: 0.7 µg/mL
Concentration in CSF [8]: 0.2 (0.04) µg/ml
Concentration in CSF [9]: 0.1 (0.03) µg/ml
Concentration in brain [9]: 0.1 µg/mL
Concentration in CSF [10]: 0.2 (2) µg/ml
Concentration in brain [11]: 0.1 µg/mL
Concentration in CSF [12]: 0.1 (0.05) µg/ml
Concentration in brain [12]: 0.2 µg/mL
Concentration in CSF [13]: 0.5 µg/mL
Concentration in CSF [14]: 0.2 (0.1) µg/ml
Concentration in CSF [15]: 0.05 (0.04) µg/ml
Concentration in brain [16]: 0.2 µg/mL and 1 µg/mL
Concentration in CSF [17]: 0.1 µg/mL
Concentration in brain [17]: 0.1 µg/mL
Concentration in brain [18]: 2.0 µg/mL
change in plasma concentration following combination therapy (rat, in vivo): no significant changes
SMILES: CC(=O)Nc1ccc(O[C@@H]2O[C@H](C(=O)O)[C@@H](O)[C@H](O)[C@H]2O)cc1 [Paracetamol-Glucuronide, paracetamol-glucuronide]
Concentration in CSF [1]: N.D. (N.D. (not detected) are values <0.01μg/ml)
Concentration in brain [1]: N.D. (N.D. (not detected) are values <0.01μg/ml)
Concentration in CSF [3]: N.D. (N.D. (not detected) are values <0.01μg/ml)
Concentration in brain [3]: N.D. (N.D. (not detected) are values <0.01μg/ml)
Concentration in CSF [5]: N.D. (N.D. (not detected) are values <0.01μg/ml)
Concentration in brain [6]: N.D. (N.D. (not detected) are values <0.01μg/ml)
Concentration in CSF [7]: N.D. (N.D. (not detected) are values <0.01μg/ml)
Concentration in brain [7]: N.D. (N.D. (not detected) are values <0.01μg/ml)

Concentration in CSF [1]: 0.06 (0.04) µg/ml
Concentration in brain [1]: 0.02 (0.02) µg/ml
Concentration in CSF [2]: 0.05 (0.04) µg/ml
Concentration in brain [2]: 0.01 (0.01) µg/ml
Concentration in plasma [2]: 0.9 (0.4) µg/ml
Concentration in plasma (E19 rats, maternal iv paracetamol 15 mg/kg + digoxin 0.03 mg/kg (PARA+DIG, n=9), median (IQR), listed as paracetamol-sulfate): 0.9 µg/mL
Concentration in CSF [3]: 0.08 (0.05) µg/ml
Concentration in brain [3]: 0.02 (0.02) µg/ml
Concentration in plasma [3]: 1.1 (0.4) µg/ml
Concentration in plasma (E19 rats, maternal iv paracetamol 15 mg/kg + olanzapine 0.15 mg/kg (PARA+OLZ, n=10), median (IQR)): 1.4 (0.5) µg/ml
Concentration in CSF [4]: 0.09 (0.06) µg/ml
Concentration in brain [4]: 0.05 (0.03) µg/ml
Concentration in CSF [5]: 0.06 (0.03) µg/ml
Concentration in plasma [6]: 0.9 (0.3) µg/ml
Concentration in plasma (E19 rats, maternal iv paracetamol 15 mg/kg + valproate 30 mg/kg (PARA+VPA, n=10), median (IQR), all values if <3 detected, listed as paracetamol-sulfate): 0.9 µg/mL
Concentration in CSF [7]: 0.09 (0.05) µg/ml
Concentration in brain [7]: 0.04 (0.03) µg/ml
Concentration in plasma [7]: 1.5 (0.4) µg/ml
Concentration in plasma (E19 rats, maternal iv paracetamol 15 mg/kg monotherapy (PARA, n=10), median (IQR), listed as paracetamol-sulfate): 1.5 µg/mL
Concentration in plasma (P4, monotherapy and combination therapy with any of the drugs investigated): around 5 µg/ml
Concentration in CSF [8]: 0.1 (0.02) µg/ml
Concentration in brain [8]: 0.06 (0.02) µg/ml
Concentration in plasma [8]: 7.5 (1.7) µg/ml
Concentration in CSF [9]: 0.1 (0.02) µg/ml
Concentration in brain [9]: 0.07 (0.04) µg/ml
Concentration in plasma [9]: 7.6 (3.3) µg/ml
Concentration in CSF [10]: 0.1 (1.6) µg/ml
Concentration in plasma [10]: 5.7 (1.4) µg/ml
Concentration in brain [11]: 0.04 µg/mL and 0.05 µg/mL
Concentration in CSF [19]: 0.07 (0.02) µg/ml
Concentration in brain [19]: 0.06 (0.02) µg/ml
Concentration in plasma [19]: 3.8 (0.9) µg/ml
Concentration in CSF [12]: 0.1 (0.04) µg/ml
Concentration in brain [12]: 0.08 (0.01) µg/ml
Concentration in plasma [12]: 7.2 (1.2) µg/ml
Concentration in CSF [13]: 0.05 ± 0.02 µg/mL
Concentration in brain [13]: 0.02 µg/mL
Concentration in plasma [13]: 2.7 (1.0) µg/ml
Concentration in CSF (P4 rats, 30 min after ip paracetamol 15 mg/kg + valproate 30 mg/kg (PARA+VPA, n=4), median (IQR)): 0.06 (0.01) µg/ml
Concentration in brain [20]: 0.05 µg/mL
Concentration in plasma [20]: 4.1 (2.1) µg/ml
Concentration in CSF [14]: 0.09 (0.05) µg/ml
Concentration in brain [14]: 0.09 (0.03) µg/ml
Concentration in plasma [14]: 3.1 (1.8) µg/ml
change in plasma concentration following combination therapy (adults, any of the drugs investigated, Kruskal-Wallis test): no significant changes
Concentration in brain (non-pregnant adult rats, 30 min after ip paracetamol 15 mg/kg + cimetidine 11 mg/kg (PARA+CIM, n=3), median (IQR)): 0.2 µg/mL
Concentration in plasma (non-pregnant adult rats, 30 min after ip paracetamol 15 mg/kg + cimetidine 11 mg/kg (PARA+CIM, n=3), median (IQR), individual values if <3 samples): 5.5 (1.4) µg/ml
Concentration in CSF [21]: 0.02 µg/mL
Concentration in plasma [21]: 7.2 (2.2) µg/ml
Concentration in brain (non-pregnant adult rats, 30 min after ip paracetamol 15 mg/kg + digoxin 0.03 mg/kg (PARA+DIG, n=3), median (IQR), individual values if <3 samples): 0.02 µg/mL
Concentration in CSF [15]: 0.07 (0.03) µg/ml
Concentration in plasma [15]: 12.9 (1.0) µg/ml
Concentration in brain [16]: 0.1 (0.4) µg/ml
Concentration in CSF [22]: 0.02 µg/mL and 0.04 µg/mL
Concentration in brain [22]: 0.1 µg/mL
Concentration in plasma [22]: 11.5 (0.7) µg/ml
Concentration in brain [17]: 0.2 (0.2) µg/ml
Concentration in plasma [17]: 14.8 (2.7) µg/ml
Concentration in brain (non-pregnant adult rats, 30 min after ip paracetamol 15 mg/kg + valproate 30 mg/kg (PARA+VPA, n=3), median (IQR)): 0.1 µg/mL
Concentration in plasma (non-pregnant adult rats, 30 min after ip paracetamol 15 mg/kg + valproate 30 mg/kg (PARA+VPA, n=3), median (IQR), individual values if <3 samples): 12.1 (0.4) µg/ml
Concentration in CSF [18]: 0.02 (0.01) µg/ml
Concentration in brain [18]: 0.1 (0.1) µg/ml
Concentration in plasma [18]: 8.8 (5.8) µg/ml
SMILES: CC(=O)Nc1ccc(OS(=O)(=O)O)cc1 [Paracetamol-Sulfate, paracetamol-sulfate]
